Article PMC5663708, “Novel Benzylidene Thiazolidinedione Derivatives as Partial PPARγ Agonists and their Antidiabetic Effects on Type 2 Diabetes” (Scientific Reports, 2017)

Legend:
[1] = system: NIH/3T3 mouse embryonic fibroblast cells; assay: XTT cytotoxicity assay on NIH/3T3 cells; conditions: Mus musculus, NIH3T3, 24 h
Description: XTT is reduced to soluble formazan by this enzyme and formazan is quantified and directly proportional to the number of viable cells. […] NIH/3T3 cells were seeded at 1 × 10^4 cells into each well of 96-well plates. […] The XTT assay (Xenometrix, Allschwil, Switzerland) was performed according to the manufacturer’s instructions, after 24 h incubation with the compounds. The absorbance was determined after 2 h incubation at 480 nm with a reference wavelength of 680 nm using a microplate reader (BioTek, USA). […] The stock solutions of the compounds were prepared in DMSO and further dilutions were made with fresh culture medium. The final DMSO concentration was under 0.1%. Rosiglitazone and Pioglitazone were used as positive controls. All data were obtained from 3 independent experiments in quadruplicates.

[2] = system: STZ-NA-induced diabetic rats; assay: Antidiabetic activity in STZ-NA-induced type 2 diabetic rats
Description: The test dose was fixed based on the predicted LD50 value. […] Diabetic rats were orally treated with the test compounds at a dose of 36 mg/kg body weight for a period of 15 days. Fasting blood glucose of control, diabetic-untreated and diabetic-treated rats were tested on Days 1, 3, 7 and 15 of the treatment period (Fig. 6A).
Male Wistar strain rats weighing about 160–200 g were used for animal studies. […] Rats were provided with rodent diet and water ad libitum. […] The animals were allowed to drink 5% glucose solution overnight to prevent STZ-NA-induced hypoglycemia[82],[83]. The rats were considered as diabetic if their blood glucose levels were above 250 mg/dL on the 3rd day after STZ-NA injection. The rats were divided into four groups of six animals in each group. Control animals received normal saline (Group I). Diabetic rats received STZ-NA injection (Group II). […] The blood glucose level of each group was checked at 1, 3, 7 and 15 Day by withdrawing blood from tail vein of the animal using glucose meter (ACCu-Chek active, Roche, Diagnostics USA).
After pharmacological screening for antidiabetic activity, the animals were subjected to overnight fasting and blood was collected from retro-orbital region under light anaesthesia for performing various biochemical experiments. All the biochemical experiments were performed using commercially available kits. Total Hb was estimated by cyanomethaemoglobin method, while HbA1c was estimated from whole blood using commercially available kits following the manufacturer guidelines (ERBA Diagnostics Inc, Accurex Biomedical Pvt. Ltd., Coral clinical systems, India). TG concentration was determined by GPO-POD enzymatic-colorimetric method. TC level was measured by the end point, CHOD-POD colorimetric methods. HDL-C was assayed by the method reported earlier. VLDL-C and LDL-C in plasma were calculated by the Friedewald formula: VLDL-C = TG/5; LDL-C = TC-(HDL-C + VLDL-C)[88]. Levels of serum urea, uric acid, and creatinine were measured using commercially available kits[89].
Rats were sacrificed under light anesthesia using diethylether at the end of the pharmacological and biochemical studies. […] Then, the tissue was sliced out into sections of 5 µm thickness by a rotator microtome and stained with hematoxylin-eosin. Obtained sections were examined by a Leica DME microscope, and representative photomicrographs were taken by a 7.1 megapixel Canon Power Shot S70 digital camera.

human PPARγ (hPPARγ) = biological target: T1, human PPARγ (hPPARγ) (Homo sapiens, UniProt P37231); design: method as in earlier work; conditions: PPARγ activity of metaglidasen; cited from earlier work
T1 construct: expressed in transfected cells; host or cells: HepG2 (human hepatoblastoma), transient calcium phosphate transfection
T1 sequence (P37231 238-503 limits assumed): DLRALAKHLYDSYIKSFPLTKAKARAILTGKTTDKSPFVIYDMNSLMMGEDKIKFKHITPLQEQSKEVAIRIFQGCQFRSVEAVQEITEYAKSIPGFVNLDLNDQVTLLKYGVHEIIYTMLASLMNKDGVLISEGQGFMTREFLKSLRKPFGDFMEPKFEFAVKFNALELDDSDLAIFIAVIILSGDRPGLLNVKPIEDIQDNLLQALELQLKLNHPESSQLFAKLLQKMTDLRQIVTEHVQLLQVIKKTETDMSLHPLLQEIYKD

## CN(CCOc1ccc(CC2SC(=O)NC2=O)cc1)c1ccccn1 (stereo not shown) [Rosiglitazone, reference compound]
[1]
  IC50: 662 ± 18 µM

## CCc1ccc(CCOc2ccc(CC3SC(=O)NC3=O)cc2)nc1 (stereo not shown) [Pioglitazone, reference compound]
[1]
  IC50: > 1000 µM
[2]; 36 mg/kg oral, 15 days, vs diabetic control rats
  blood glucose levels: significantly reduced
[2]; 36 mg/kg oral, 15 days, vs disease control (STZ + NA)
  Hb levels: significant increase
[2]; 36 mg/kg, light microscopy, hematoxylin-eosin
  histological changes of pancreas (islets, β-cells): restored to near normal

## CC(=O)NCCOC(=O)[C@H](Oc1cccc(C(F)(F)F)c1)c1ccc(Cl)cc1 [metaglidasen]
Human PPARγ (hPPARγ)
  EC50: ~10 µM
  Emax: around 10%
